One test addresses T1, human full-length glucocorticoid receptor (Homo sapiens, UniProt P04150).
T1 sequence (P04150 1-777): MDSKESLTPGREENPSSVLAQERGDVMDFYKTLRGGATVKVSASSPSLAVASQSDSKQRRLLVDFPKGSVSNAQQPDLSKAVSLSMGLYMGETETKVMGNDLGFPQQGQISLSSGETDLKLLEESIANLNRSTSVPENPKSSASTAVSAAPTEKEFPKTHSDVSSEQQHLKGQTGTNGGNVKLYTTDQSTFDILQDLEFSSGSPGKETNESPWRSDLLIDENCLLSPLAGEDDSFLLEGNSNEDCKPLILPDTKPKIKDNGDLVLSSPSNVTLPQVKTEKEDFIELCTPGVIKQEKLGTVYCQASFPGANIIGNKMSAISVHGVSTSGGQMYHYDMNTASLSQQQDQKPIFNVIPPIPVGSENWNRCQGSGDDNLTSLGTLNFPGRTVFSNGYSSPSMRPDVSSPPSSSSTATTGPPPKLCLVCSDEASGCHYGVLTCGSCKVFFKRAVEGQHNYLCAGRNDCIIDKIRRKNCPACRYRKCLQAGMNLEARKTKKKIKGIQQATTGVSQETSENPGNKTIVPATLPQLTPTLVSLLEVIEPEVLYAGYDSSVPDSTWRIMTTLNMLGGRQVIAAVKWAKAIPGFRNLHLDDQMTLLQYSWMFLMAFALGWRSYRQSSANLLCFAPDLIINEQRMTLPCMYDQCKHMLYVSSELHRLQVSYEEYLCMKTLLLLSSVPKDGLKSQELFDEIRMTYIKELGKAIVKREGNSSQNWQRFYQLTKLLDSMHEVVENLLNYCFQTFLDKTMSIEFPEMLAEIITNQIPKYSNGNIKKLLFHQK
Put plainly: Glucocorticoid Receptor Binding Assay (I), fluorescence polarization, Fluormone GS Red. Further details: purified human recombinant full-length glucocorticoid receptor; purchased Invitrogen Part #2893.
Settings: not given
The procedure:
Glucocorticoid Receptor Binding Assay (I)^a
Briefly, purified human recombinant full-length glucocorticoid receptor (2 nM) was mixed with fluorescently labeled glucocorticoid (1 nM Fluormone GS Red) in the presence or absence of test compound. After two hour incubation at room temperature in the dark, the fluorescence polarization (FP) of the samples was measured. […] Test compounds were analyzed in the concentration range from 8.5E-05 μM to 5 μM.
A general note: Fluorescence polarisation rises when a labelled molecule tumbles more slowly, as on binding a larger partner.
In the case of `CC(C)(C(=O)Nc1nncs1)[C@H]1c2ccccc2Oc2nc(-c3ccc(C(=O)O)cc3)ccc21` [Example 174], the Ki (as a rule, a measure of affinity in units of concentration, obtained from inhibition or displacement) is 10.2 nM.

Take `Cc1nnc(NC(=O)C(C)(C)[C@H]2c3ccccc3Oc3nc(-c4ccc(C(=O)N5CCC(=O)CC5)cc4)ccc32)s1` [Example 475]: the Ki turned out to be 18.3 nM. Still for that read-out and setting: next, `CNC(=O)c1ccc(-c2ccc3c(n2)Oc2ccccc2[C@@H]3C(C)(C)C(=O)Nc2nncs2)cc1F` [Example 253]: 6.28 nM; `CC(C)(C(=O)Nc1nncs1)[C@H]1c2ccccc2Oc2nc(-c3ccc(C(N)=O)cc3)ccc21` [Example 215]: 2.5 nM.

Still in this test, the particulars now being: GR Binding Assay (I); read-out: GR (Ki, nM) (GR Binding Assay (I)).
Take `CC(C)(C(=O)Nc1nncs1)[C@H]1c2ccccc2Oc2nc(N3CCN(C(=O)N4CCCC4)CC3)ccc21` [Example 400]: the Ki is 37.3 nM. The same measure, in the same setting: then `CN(C)C(=O)c1ccc(-c2ccc3c(n2)Oc2ccccc2C3C(C)(C)C(=O)Nc2ccn(C)n2)cc1` (stereo not drawn) [Example 366], with 200 nM; and `CC(C)(C(=O)Nc1nncs1)[C@H]1c2ccccc2Oc2nc(C(=O)NCc3ccccc3)ccc21` [Example 396], with 10.6 nM; and `CC1CCN(C(=O)c2ccc(-c3ccc4c(n3)Oc3ccccc3[C@@H]4C(C)(C)C(=O)Nc3nncs3)cc2)CC1` [Example 268], with 9.45 nM. The same measure, in the same setting: then `CC(C)(C(=O)Nc1nncs1)[C@H]1c2ccccc2Oc2nc(-c3ccc(C(=O)N(CCO)CCO)cc3)ccc21` [Example 304], with 149 nM; and `CN(CC(=O)O)C(=O)c1ccc(-c2ccc3c(n2)Oc2ccccc2[C@@H]3C(C)(C)C(=O)Nc2nncs2)cc1` [Example 338], with 312 nM; and `CN1CCCN(C(=O)c2ccc(-c3ccc4c(n3)Oc3ccccc3[C@@H]4C(C)(C)C(=O)Nc3nncs3)cc2)CC1` [Example 297], with over 1150 nM. On the same count and under the same terms, then `Cc1nc(NC(=O)C(C)(C)C2c3ccccc3Oc3nc(-c4ccc(C(=O)N(C)C)cc4)ccc32)sc1C` (stereo not drawn) [Example 365], with 18.3 nM; and `CC(C)(C(=O)Nc1nncs1)[C@H]1c2ccccc2Oc2nc(-c3ccc(S(C)(=O)=O)cc3)ccc21` [Example 214], with 1.37 nM.

In the case of `CC(C)(C(=O)Nc1nncs1)C1c2ccccc2Oc2cc(NC(=O)NCc3ccccc3)ccc21` (stereo not drawn) [Example 122], the Ki is 80 nM. Still for that read-out and setting: next, `CC(C)(C(=O)Nc1nncs1)C1c2ccccc2Oc2cc(C(=O)NCc3ccccc3)ccc21` (stereo not drawn) [Example 118]: 76.6 nM; `CC(C)(C(=O)Nc1nncs1)[C@H]1c2ccccc2Oc2nc(-c3ccc(C(=O)N4CCCC(F)(F)C4)cc3)ccc21` [Example 287]: 16.8 nM. Same read-out and setting: next, `CC(C)(N)c1ccc(-c2ccc3c(n2)Oc2ccccc2[C@@H]3C(C)(C)C(=O)Nc2nncs2)cc1` [Example 416]: 94.5 nM; `CC(C)(C(=O)Nc1nncs1)[C@H]1c2ccccc2Oc2nc(-c3ccc4c(c3)CCC4=O)ccc21` [Example 451]: 5.57 nM; `Cc1ccn(-c2ccc3c(n2)Oc2ccccc2[C@@H]3C(C)(C)C(=O)Nc2nncs2)c(=O)c1` [Example 405]: 424 nM. Same read-out and setting: then `CN(C)C(=O)CN(C)C(=O)c1ccc(-c2ccc3c(n2)Oc2ccccc2[C@@H]3C(C)(C)C(=O)Nc2nncs2)cc1` [Example 319], with 110 nM; and `CN(C)C(=O)c1ccc(-c2ccc3c(n2)Oc2ccccc2C3C2(C(=O)Nc3nncs3)CCOCC2)cc1` (stereo not drawn) [Example 483], with 426 nM. Take `CN(C)C(=O)c1ccc(-c2ccc3c(c2)Oc2ncccc2C3C(C)(C)C(=O)Nc2nncs2)cc1` (stereo not drawn) [Example 490]: the Ki was 14.8 nM. Regarding `CNC(=O)C1CCN(C(=O)c2ccc(-c3ccc4c(n3)Oc3ccccc3[C@@H]4C(C)(C)C(=O)Nc3nncs3)cc2)CC1` [Example 321], the Ki is 30.6 nM. Still for that read-out and setting: then `Cc1nnc(-c2ccc(-c3ccc4c(n3)Oc3ccccc3[C@@H]4C(C)(C)C(=O)Nc3nncs3)cc2)o1` [Example 237], with 6.04 nM; and `CC(C)(C(=O)Nc1cnns1)[C@H]1c2ccccc2Oc2nc(-c3ccc(C(=O)N4CCCC4)c(F)c3)ccc21` [Example 414], with 589 nM. Still for that read-out and setting: then `CC(C)(C(=O)Nc1nncs1)[C@H]1c2ccccc2Oc2nc(-c3ccc(C(=O)N4CCNC(=O)CC4)cc3)ccc21` [Example 311], with 25.8 nM; and `CC(C)(C(=O)Nc1nncs1)[C@H]1c2ccccc2Oc2nc(-c3ccc(C(=O)N4CCC(CO)CC4)cc3)ccc21` [Example 279], with 20.8 nM; and `CC(C)(C(=O)Nc1nncs1)[C@H]1c2ccccc2Oc2nc(C#N)ccc21` [Example 395], with 1.19 nM. Same read-out and setting: then `CN(Cc1ccccc1)C(=O)c1ccc(-c2ccc3c(n2)Oc2ccccc2[C@@H]3C(C)(C)C(=O)Nc2nncs2)cc1` [Example 255], with 16.1 nM; and `Cc1nnc(NC(=O)C(C)(C)C2c3ccccc3Oc3cc(-c4ccc(C(=O)N5CCOCC5)cc4)ncc32)s1` (stereo not drawn) [Example 493], with 109 nM; and `CNC(=O)c1ccc(-c2ccc3c(n2)Oc2ccccc2[C@@H]3C(C)(C)C(=O)Nc2nncs2)cc1OC` [Example 361], with 14.6 nM. Consider `CC(C)(C(=O)Nc1nncs1)[C@H]1c2ccccc2Oc2nc(-c3cc4ccccc4o3)ccc21` [Example 216], for which the Ki was found to be 4.14 nM. `CC(C)(C(=O)Nc1nncs1)C1c2ccccc2Oc2cc(C(=O)O)ccc21` (stereo not drawn) [Example 114]: the Ki worked out at 49.9 nM. Same read-out and setting: then `CN(C)C(=O)CNC(=O)Nc1ccc2c(n1)Oc1ccccc1[C@@H]2C(C)(C)C(=O)Nc1nncs1` [Example 402], with 699 nM; and `CC(C)(C(=O)Nc1nncs1)[C@H]1c2ccccc2Oc2nc(-c3ccc(OC4CCCCC4)c(F)c3)ccc21` [Example 243], with over 1150 nM; and `CC(C)(C(=O)Nc1nncs1)[C@H]1c2ccccc2Oc2nc(-c3ccc(OC4CCCC4)c(F)c3)ccc21` [Example 244], with over 1150 nM. On to `COc1cc(-c2ccc3c(n2)Oc2ccccc2[C@@H]3C(C)(C)C(=O)Nc2nncs2)ccc1C(=O)N(C)C` [Example 347], for which the Ki came to 5.63 nM. On the same count and under the same terms, then `CC(C)(C(=O)Nc1nncs1)[C@H]1c2ccccc2Oc2nc(-c3ccc(S(=O)(=O)NC4CC4)cc3)ccc21` [Example 235], with 4.85 nM; and `CN(C)C(=O)c1ccc(-c2ccc3c(n2)Oc2ccccc2C3CC(=O)Nc2nncs2)cc1` (stereo not drawn) [Example 491], with over 1150 nM.

Take `CN(C)C(=O)c1ccc(-c2ccc3c(c2)Oc2ccccc2C3C(C)(C)C(=O)Nc2nncs2)s1` (stereo not drawn) [Example 104]: the Ki was found to be 4.5 nM.

Turning to `CN(C)[C@H]1CCN(C(=O)c2ccc(-c3ccc4c(n3)Oc3ccccc3[C@@H]4C(C)(C)C(=O)Nc3nncs3)cc2)C1` [Example 308], the inhibitory constant (Ki) turned out to be 313 nM. On to `CC(C)(C(=O)Nc1nncs1)C1c2ccccc2Oc2cc(C(=O)N3CCOCC3)ccc21` (stereo not drawn) [Example 116], for which the Ki is 346 nM. The same measure, in the same setting: next, `Cc1cc(-c2ccc3c(n2)Oc2ccccc2[C@@H]3C(C)(C)C(=O)Nc2nncs2)ccc1OC(C)C` [Example 224]: 8.06 nM; `CN(CCC#N)C(=O)c1ccc(-c2ccc3c(n2)Oc2ccccc2[C@@H]3C(C)(C)C(=O)Nc2nncs2)cc1F` [Example 326]: 10.5 nM. The same measure, in the same setting: next, `CCN(CCO)C(=O)c1ccc(-c2ccc3c(n2)Oc2ccccc2[C@@H]3C(C)(C)C(=O)Nc2nncs2)cc1` [Example 320]: 13.1 nM.

As for `CC(C)(C(=O)Nc1nncs1)[C@H]1c2ccccc2Oc2nc(C3=CCNCC3)ccc21` [Example 407], the Ki is 958 nM. For `CC(C)(C(=O)NC1=NC(=O)CS1)[C@H]1c2ccccc2Oc2nc(-c3ccc(C(=O)N4CCCC4)c(F)c3)ccc21` [Example 413], the Ki is 37.7 nM. As for `Cc1nnc(NC(=O)C(C)(C)[C@H]2c3ccccc3Oc3nc(-c4cc(F)c(C(=O)N(C)C)c(F)c4)ccc32)s1` [Example 469], the Ki was determined as 49.8 nM.

As to `CN(C)C(=O)c1ccc(-c2ccc3c(n2)Oc2ccccc2C3C(C)(C)C(=O)Nc2ccccn2)cc1` (stereo not drawn) [Example 438], the Ki turned out to be 53.1 nM. Still for that read-out and setting: next, `CNC(=O)c1ccc2c(c1)Oc1ccccc1C2C(C)(C)C(=O)Nc1nncs1` (stereo not drawn) [Example 117]: 123 nM; `COCCNC(=O)c1ccc(-c2ccc3c(n2)Oc2ccccc2[C@@H]3C(C)(C)C(=O)Nc2nncs2)cc1` [Example 355]: 19.6 nM. On the same count and under the same terms, next, `CN(C)S(=O)(=O)c1ccc(-c2ccc3c(n2)Oc2ccccc2[C@@H]3C(C)(C)C(=O)Nc2nncs2)cc1` [Example 232]: 4.57 nM.

As to `CC(=O)NC(C)(C)c1ccc(-c2ccc3c(n2)Oc2ccccc2[C@@H]3C(C)(C)C(=O)Nc2nncs2)cc1` [Example 415], the Ki was 64.1 nM. Same read-out and setting: then `CC(C)CC1CCCN1C(=O)c1ccc(-c2ccc3c(n2)Oc2ccccc2[C@@H]3C(C)(C)C(=O)Nc2nncs2)cc1` (stereo partly drawn) [Example 317], with 23.7 nM.

(Values after patent publication US8034940B2, “Modulators of glucocorticoid receptor, AP-1, and/or NF-κB activity and use thereof” (Bristol-Myers Squibb Company, priority 2006, dated 2011).)
